This note sets out measurements from patent US20250107533A1, “FUNGICIDAL COMPOSITIONS” (SYNGENTA CROP PROTECTION AG, priority 2021, published 2025).

This test has as its system Phakopsora pachyrhizi. The test can be described thus: Soybean leaf disk test against Asian soybean rust (Example 1). To be noted: soybean leaf disks, assessed 12 days after inoculation; for inhibition at 0.74 ppm / inhibition at 2.22 ppm / inhibition at 0.25 ppm: Phakopsora pachyrhizi, foliar, 288 h, component (B) alone; for (A) inhibition: Aureobasidin A alone. The test is classed as in vivo. Here is the method: The compositions according to the invention are tested for their biological (fungicidal) activity using application rates wherein the component (A) is applied at a rate of from 25 g a.i./ha to 500 g a.i./ha in association with 10 g a.i./ha to 500 g a.i./ha of component (B).
The compositions according to the invention are tested for their biological (fungicidal) activity as dimethylsulfoxide (DMSO) solutions the protocols as set forth in the examples below. A standard description of the liquid culture tests is provided in Example 1.
Compounds to be tested were prepared as DMSO solutions (max. 10 mg/mL) which were diluted to the appropriate concentration with 0.025% TWEEN 20® surfactant just before spraying. Soybean leaf disks were placed on agar in multiwell plates (24-well format) and sprayed with test solutions. After 24 hours drying, the leaf disks were inoculated with a spore suspension of the fungus. The disease severity of a compound or mixture was assessed 12 days after inoculation and described as percent activity relative to the untreated check leaf disks.

On to `CCOC(=O)c1cnn(Cc2ccc(-c3noc(C(F)(F)F)n3)cc2)c1` [B.01, ethyl 1-[[4-[5-(trifluoromethyl)-1,2,4-oxadiazol-3-yl]phenyl]methyl]pyrazole-4-carboxylate], for which the inhibition (usually the percentage by which the read-out fell short of the control) at 0.74 ppm was found to be 50%.

With `CON(Cc1ccc(-c2noc(C(F)(F)F)n2)cc1)C(=O)C1CC1` [B.02, N-methoxy-N-[[4-[5-(trifluoromethyl)-1,2,4-oxadiazol-3-yl]phenyl]methyl]cyclopropanecarboxamide], testing at 0.74 ppm gave an inhibition of 10% and the inhibition at 2.22 ppm amounted to 35%.

Consider `COC(C)C(=O)N(Cc1ccc(-c2noc(C(F)(F)F)n2)cc1)OC` (stereo not shown) [B.03, N,2-dimethoxy-N-[[4-[5-(trifluoromethyl)-1,2,4-oxadiazol-3-yl]phenyl]methyl]propanamide], for which the inhibition at 0.74 ppm worked out at 10% and the inhibition at 2.22 ppm was found to be 35%.

For the compound `CCN(Cc1ccc(-c2noc(C(F)(F)F)n2)cc1)C(=O)C(C)C` [B.04, N-ethyl-2-methyl-N-[[4-[5-(trifluoromethyl)-1,2,4-oxadiazol-3-yl]phenyl]methyl]propanamide], at 0.25 ppm the inhibition was 0%, the inhibition at 0.74 ppm was found to be 0% and testing at 2.22 ppm gave an inhibition of 35%.

In the case of `CNC(=O)N(Cc1ccc(-c2noc(C(F)(F)F)n2)cc1)OC` [B.05, 1-methoxy-3-methyl-1-[[4-[5-(trifluoromethyl)-1,2,4-oxadiazol-3-yl]phenyl]methyl]urea], testing at 0.25 ppm gave an inhibition of 0% and the inhibition at 0.74 ppm came out at 50%.

As to `CONC(=O)N(Cc1ccc(-c2noc(C(F)(F)F)n2)cc1)OC` [B.06, 1,3-dimethoxy-1-[[4-[5-(trifluoromethyl)-1,2,4-oxadiazol-3-yl]phenyl]methyl]urea], the inhibition at 0.25 ppm came to 0% and the inhibition at 0.74 ppm amounted to 0%.

The compound `CCNC(=O)N(Cc1ccc(-c2noc(C(F)(F)F)n2)cc1)OC` [B.07, 3-ethyl-1-methoxy-1-[[4-[5-(trifluoromethyl)-1,2,4-oxadiazol-3-yl]phenyl]methyl]urea] displayed an inhibition at 0.25 ppm of 0% and an inhibition at 0.74 ppm of 35%.

The compound `CCC(=O)NCc1ccc(-c2noc(C(F)(F)F)n2)cc1` [B.08, N-[[4-[5-(trifluoromethyl)-1,2,4-oxadiazol-3-yl]phenyl]methyl]propanamide] showed an inhibition at 0.25 ppm of 0%, an inhibition at 0.74 ppm of 20% and an inhibition at 2.22 ppm of 60%.

In the case of Aureobasidin A, the “(A) inhibition” value (2.5 ppm) was determined as 62% and the “(A) inhibition” value (7.4 ppm) is reported as 88%.
